Source: patent publication US10040781B2, “Tank-binding kinase inhibitor compounds” (Gilead Sciences, Inc., priority 2014, dated 2018)

Experiments:
hJAK2 = hJAK2 (Homo sapiens (Human), UniProt O60674); assay: hJAK2 LANCE TR-FRET enzymatic assay; format: biochemical; conditions: read-out: JAK2 IC50
TBK1 = TBK1 (Homo sapiens (Human), UniProt Q9UHD2); assay: TBK1 TR-FRET enzymatic assay;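 note: phosphorylation of a biotinylated Ser/Thr peptide by purified full-length recombinant TBK1, read by TR-FRET after 240 min at 25 °C, IC50 is the geometric mean of at least four runs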
TBK1, sequence (Q9UHD2 whole entry): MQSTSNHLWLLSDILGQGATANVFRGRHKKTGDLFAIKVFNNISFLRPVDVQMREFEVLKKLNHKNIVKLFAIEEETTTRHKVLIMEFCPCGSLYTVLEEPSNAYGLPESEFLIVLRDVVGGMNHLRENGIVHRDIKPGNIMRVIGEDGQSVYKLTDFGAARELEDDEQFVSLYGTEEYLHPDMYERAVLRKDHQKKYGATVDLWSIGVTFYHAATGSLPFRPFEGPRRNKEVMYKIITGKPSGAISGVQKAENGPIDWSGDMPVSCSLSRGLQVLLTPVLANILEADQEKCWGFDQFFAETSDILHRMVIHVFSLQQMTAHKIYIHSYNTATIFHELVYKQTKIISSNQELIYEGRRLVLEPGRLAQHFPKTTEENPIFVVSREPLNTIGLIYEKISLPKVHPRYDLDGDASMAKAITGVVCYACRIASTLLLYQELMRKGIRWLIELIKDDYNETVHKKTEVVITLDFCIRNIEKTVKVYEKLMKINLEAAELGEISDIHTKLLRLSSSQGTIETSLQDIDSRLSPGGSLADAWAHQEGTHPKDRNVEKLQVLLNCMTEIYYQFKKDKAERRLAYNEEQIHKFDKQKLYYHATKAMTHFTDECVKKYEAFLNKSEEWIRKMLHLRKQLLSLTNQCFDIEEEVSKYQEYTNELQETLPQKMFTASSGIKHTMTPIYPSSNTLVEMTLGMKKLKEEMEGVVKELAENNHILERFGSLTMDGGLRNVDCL

hJAK2, sequence (O60674 whole entry): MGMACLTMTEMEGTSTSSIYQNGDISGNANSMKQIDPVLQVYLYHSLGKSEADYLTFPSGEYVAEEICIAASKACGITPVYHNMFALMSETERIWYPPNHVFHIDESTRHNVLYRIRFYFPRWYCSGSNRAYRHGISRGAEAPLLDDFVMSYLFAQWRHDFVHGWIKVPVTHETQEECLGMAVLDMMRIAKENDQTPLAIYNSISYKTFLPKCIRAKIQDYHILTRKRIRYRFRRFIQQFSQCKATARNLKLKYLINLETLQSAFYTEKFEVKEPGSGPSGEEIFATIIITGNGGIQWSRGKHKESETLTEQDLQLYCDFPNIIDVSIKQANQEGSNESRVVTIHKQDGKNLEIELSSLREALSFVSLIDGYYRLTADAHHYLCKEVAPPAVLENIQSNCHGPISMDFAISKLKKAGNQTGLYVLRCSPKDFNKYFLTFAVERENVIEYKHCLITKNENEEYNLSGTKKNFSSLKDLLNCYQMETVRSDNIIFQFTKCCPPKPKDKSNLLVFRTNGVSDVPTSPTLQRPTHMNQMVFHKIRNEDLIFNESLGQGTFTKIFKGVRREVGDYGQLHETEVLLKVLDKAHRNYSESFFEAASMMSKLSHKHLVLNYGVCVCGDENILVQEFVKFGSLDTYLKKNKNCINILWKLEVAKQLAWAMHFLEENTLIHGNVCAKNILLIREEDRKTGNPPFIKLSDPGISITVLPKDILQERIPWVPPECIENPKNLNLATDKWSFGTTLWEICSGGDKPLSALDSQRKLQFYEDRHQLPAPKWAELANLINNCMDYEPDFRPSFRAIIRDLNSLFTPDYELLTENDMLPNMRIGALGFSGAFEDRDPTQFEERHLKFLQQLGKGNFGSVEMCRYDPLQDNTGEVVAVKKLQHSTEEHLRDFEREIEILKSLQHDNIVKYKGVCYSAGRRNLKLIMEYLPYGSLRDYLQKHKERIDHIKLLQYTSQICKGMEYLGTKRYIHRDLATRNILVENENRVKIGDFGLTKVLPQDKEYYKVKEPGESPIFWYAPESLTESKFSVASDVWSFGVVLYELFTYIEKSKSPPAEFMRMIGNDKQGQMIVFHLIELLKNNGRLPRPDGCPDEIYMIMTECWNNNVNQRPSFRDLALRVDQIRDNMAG

Row | Structure (SMILES) | IC50 (hJAK2) [nM] | IC50 (TBK1) [nM]
1 | N#Cc1cc(-c2ncnc(Nc3ccc(N4CCN(C5COC5)CC4)cc3)n2)ccc1O[C@@H]1CCN(C(=O)CO)C1 [Example 30, (R)-2-((1-(2-hydroxyacetyl)pyrrolidin-3-yl)oxy)-5-(4-((4-(4-(oxetan-3-yl)piperazin-1-yl)phenyl)amino)-1,3,5-triazin-2-yl)benzonitrile] | 387 | 3
2 | N#CCC(=O)N1CCC(Oc2ccc(-c3ncnc(Nc4ccc(N5CCN(C6COC6)CC5)cc4)n3)cc2C#N)CC1 [Example 44, 2-((1-(2-cyanoacetyl)piperidin-4-yl)oxy)-5-(4-((4-(4-(oxetan-3-yl)piperazin-1-yl)phenyl)amino)-1,3,5-triazin-2-yl)benzonitrile] | 444 | 9
3 | CS(=O)(=O)c1ccc(Nc2ncnc(-c3ccc(OC4CCOCC4)c(C#N)c3)n2)cc1 [Example 50, 5-(4-((4-(methylsulfonyl)phenyl)amino)-1,3,5-triazin-2-yl)-2-((tetrahydro-2H-pyran-4-yl)oxy)benzonitrile] | > 1000 | 5
4 | N#Cc1cc(-c2ncnc(Nc3cccc(N4CCOCC4)c3)n2)ccc1O[C@@H]1CCN(C(=O)CO)C1 [Example 81, (R)-2-((1-(2-hydroxyacetyl)pyrrolidin-3-yl)oxy)-5-(4-((3-morpholinophenyl)amino)-1,3,5-triazin-2-yl)benzonitrile] | 290 | 27
5 | N#Cc1cc(-c2ncnc(Nc3ccc(C(N)=O)cc3)n2)ccc1O[C@@H]1CCN(C(=O)CO)C1 [Example 85, (R)-4-((4-(3-cyano-4-((1-(2-hydroxyacetyl)pyrrolidin-3-yl)oxy)phenyl)-1,3,5-triazin-2-yl)amino)benzamide] | 678 | 13
6 | C[C@H](O)C(=O)N1CC[C@@H](Oc2ccc(-c3ncnc(Nc4ccc(N5CCN(C6COC6)[C@H](C)C5)cc4)n3)cc2C#N)C(F)(F)C1 [Example 245, 2-(((R)-3,3-difluoro-1-((S)-2-hydroxypropanoyl)piperidin-4-yl)oxy)-5-(4-((4-((R)-3-methyl-4-(oxetan-3-yl)piperazin-1-yl)phenyl)amino)-1,3,5-triazin-2-yl)benzonitrile] | 228 | 17
7 | CC(=O)N1CC[C@H](Oc2ccc(-c3ncnc(Nc4ccc(C5CCNCC5)cc4)n3)cc2C#N)C(F)(F)C1 [Example 301, (S)-2-((1-acetyl-3,3-difluoropiperidin-4-yl)oxy)-5-(4-((4-(piperidin-4-yl)phenyl)amino)-1,3,5-triazin-2-yl)benzonitrile] | 308 | 3
8 | N#Cc1cc(-c2ncnc(Nc3cnn(C(F)F)c3)n2)ccc1O[C@H]1CCN(C(=O)CO)C[C@H]1F [Example 454, 5-(4-((1-(difluoromethyl)-1H-pyrazol-4-yl)amino)-1,3,5-triazin-2-yl)-2-(((3R,4S)-3-fluoro-1-(2-hydroxyacetyl)piperidin-4-yl)oxy)benzonitrile] | 621 | 
9 | C[C@@H](O)C(=O)N1CC[C@H](Oc2ccc(-c3ncnc(Nc4ccc(N5CCN(C6COC6)CC5)cc4)n3)cc2C#N)[C@H](F)C1 [Example 464, 2-(((3R,4S)-3-fluoro-1-((R)-2-hydroxypropanoyl)piperidin-4-yl)oxy)-5-(4-((4-(4-(oxetan-3-yl)piperazin-1-yl)phenyl)amino)-1,3,5-triazin-2-yl)benzonitrile] | 332 | 
10 | CC(=O)N1CC[C@H](Oc2ccc(-c3ncnc(Nc4ccc(S(C)(=N)=O)cc4)n3)cc2C#N)C(F)(F)C1 (stereo partly shown) [Example 481] | 320 | 
11 | COc1cc(Nc2ncnc(-c3ccc(O[C@H]4CCN(C(=O)[C@H](C)O)C[C@H]4F)c(C#N)c3)n2)cnc1N1CCN(C2COC2)CC1 [Example 514, 2-(((3R,4S)-3-fluoro-1-((S)-2-hydroxypropanoyl)piperidin-4-yl)oxy)-5-(4-((5-methoxy-6-(4-(oxetan-3-yl)piperazin-1-yl)pyridin-3-yl)amino)-1,3,5-triazin-2-yl)benzonitrile] | ≥ 1000 | 
12 | C[C@H](O)C(=O)N1CC[C@H](Oc2ccc(-c3ncnc(Nc4ccc([C@@H]5C(=O)N(C)CCN5C)cc4)n3)cc2C#N)[C@H](F)C1 [Example 518, 5-(4-((4-((R)-1,4-dimethyl-3-oxopiperazin-2-yl)phenyl)amino)-1,3,5-triazin-2-yl)-2-(((3R,4S)-3-fluoro-1-((S)-2-hydroxypropanoyl)piperidin-4-yl)oxy)benzonitrile] | ≥ 1000 | 
13 | N#Cc1cc(-c2ncnc(Nc3ccc(N4CCN(C5COC5)CC4)cc3)n2)ccc1O[C@H]1CCN(C(=O)[C@@H]2CSC(=O)N2)C[C@H]1F [Example 530, 2-(((3R,4S)-3-fluoro-1-((R)-2-oxothiazolidine-4-carbonyl)piperidin-4-yl)oxy)-5-(4-((4-(4-(oxetan-3-yl)piperazin-1-yl)phenyl)amino)-1,3,5-triazin-2-yl)benzonitrile] | 289 | 
14 | Cc1cc(Nc2ncnc(-c3ccc(O[C@H]4CCN(C(=O)[C@@H](O)CO)C[C@H]4F)c(C#N)c3)n2)ccc1N1CCN(C2COC2)CC1 [Example 575, 2-(((3R,4S)-1-((S)-2,3-dihydroxypropanoyl)-3-fluoropiperidin-4-yl)oxy)-5-(4-((3-methyl-4-(4-(oxetan-3-yl)piperazin-1-yl)phenyl)amino)-1,3,5-triazin-2-yl)benzonitrile] | 62 | 
15 | Cc1cc(Nc2ncnc(-c3ccc(O[C@H]4CCN(C(=O)[C@H](O)CO)C[C@H]4F)c(C#N)c3)n2)ccc1N1CCN(C2COC2)CC1 [Example 576, 2-(((3R,4S)-1-((R)-2,3-dihydroxypropanoyl)-3-fluoropiperidin-4-yl)oxy)-5-(4-((3-methyl-4-(4-(oxetan-3-yl)piperazin-1-yl)phenyl)amino)-1,3,5-triazin-2-yl)benzonitrile] | 56 | 
16 | C[C@H](O)C(=O)N1CC[C@H](Oc2ccc(-c3ncnc(Nc4ccc(N5CCN6CCOC[C@H]6C5)cc4)n3)cc2C#N)[C@H](F)C1 [Example 619, 2-(((3R,4S)-3-fluoro-1-((S)-2-hydroxypropanoyl)piperidin-4-yl)oxy)-5-(4-((4-((R)-hexahydropyrazino[2,1-c][1,4]oxazin-8(1H)-yl)phenyl)amino)-1,3,5-triazin-2-yl)benzonitrile] | 364 | 

Results, then the molecule that gave them:

Row | IC50 (hJAK2) [nM] | IC50 (TBK1) [nM] | Structure (SMILES)
17 | 53 | 2 | N#Cc1cc(-c2ncnc(Nc3ccc(N4CCN(C5COC5)CC4)cc3)n2)ccc1O[C@H]1CCN(C(=O)c2nnc[nH]2)CC1(F)F [Example 166, (S)-2-((3,3-difluoro-1-(4H-1,2,4-triazole-3-carbonyl)piperidin-4-yl)oxy)-5-(4-((4-(4-(oxetan-3-yl)piperazin-1-yl)phenyl)amino)-1,3,5-triazin-2-yl)benzonitrile]
18 | 189 | 1 | N#Cc1cc(-c2ncnc(Nc3ccc(N4CCO[C@@H](CO)C4)cc3)n2)ccc1O[C@H]1CCN(C(=O)CO)C[C@H]1F [Example 229, 2-(((3R,4S)-3-fluoro-1-(2-hydroxyacetyl)piperidin-4-yl)oxy)-5-(4-((4-((R)-2-(hydroxymethyl)morpholino)phenyl)amino)-1,3,5-triazin-2-yl)benzonitrile]
19 | 42 | 2 | C[C@H]1CN(C2COC2)CCN1c1ccc(Nc2ncnc(-c3ccc(O[C@H]4CCN(C(=O)c5nnc[nH]5)CC4(F)F)c(C#N)c3)n2)cc1 [Example 260, 2-(((S)-3,3-difluoro-1-(4H-1,2,4-triazole-3-carbonyl)piperidin-4-yl)oxy)-5-(4-((4-((S)-2-methyl-4-(oxetan-3-yl)piperazin-1-yl)phenyl)amino)-1,3,5-triazin-2-yl)benzonitrile]
20 | 46 | 1 | C[C@H]1CN(c2ccc(Nc3ncnc(-c4ccc(O[C@H]5CCN(C(=O)CO)CC5(F)F)c(C#N)c4)n3)cc2)CCN1C1COC1 [Example 261, 2-(((S)-3,3-difluoro-1-(2-hydroxyacetyl)piperidin-4-yl)oxy)-5-(4-((4-((S)-3-methyl-4-(oxetan-3-yl)piperazin-1-yl)phenyl)amino)-1,3,5-triazin-2-yl)benzonitrile]
21 | 174 | 2 | CC(=O)N1CC[C@H](Oc2ccc(-c3ncnc(Nc4ccc(C5CCN(C)CC5)cc4)n3)cc2C#N)C(F)(F)C1 [Example 302, (S)-2-((1-acetyl-3,3-difluoropiperidin-4-yl)oxy)-5-(4-((4-(1-methylpiperidin-4-yl)phenyl)amino)-1,3,5-triazin-2-yl)benzonitrile]
22 | 90 |  | Cc1n[nH]c(C(=O)N2CC[C@H](Oc3ccc(-c4ncnc(Nc5ccc(N6CCN(C7COC7)CC6)cc5)n4)cc3C#N)[C@H](F)C2)n1 [Example 451, 2-(((3R,4S)-3-fluoro-1-(3-methyl-1H-1,2,4-triazole-5-carbonyl)piperidin-4-yl)oxy)-5-(4-((4-(4-(oxetan-3-yl)piperazin-1-yl)phenyl)amino)-1,3,5-triazin-2-yl)benzonitrile]
23 | 26 |  | COc1cc(Nc2ncnc(-c3ccc(O[C@H]4CCN(C(=O)CC#N)C[C@H]4F)c(C#N)c3)n2)ccc1N1CCN(C2COC2)CC1 [Example 558, 2-(((3R,4S)-1-(2-cyanoacetyl)-3-fluoropiperidin-4-yl)oxy)-5-(4-((3-methoxy-4-(4-(oxetan-3-yl)piperazin-1-yl)phenyl)amino)-1,3,5-triazin-2-yl)benzonitrile]
24 | 70 |  | COc1cc(Nc2ncnc(-c3ccc(O[C@H]4CCN(C(=O)[C@@H](O)CO)C[C@H]4F)c(C#N)c3)n2)ccc1N1CCN(C2COC2)CC1 [Example 578, 2-(((3R,4S)-1-((S)-2,3-dihydroxypropanoyl)-3-fluoropiperidin-4-yl)oxy)-5-(4-((3-methoxy-4-(4-(oxetan-3-yl)piperazin-1-yl)phenyl)amino)-1,3,5-triazin-2-yl)benzonitrile]
25 | 48 |  | COc1cc(Nc2ncnc(-c3ccc(O[C@H]4CCN(C(=O)[C@H](O)CO)C[C@H]4F)c(C#N)c3)n2)ccc1N1CCN(C2COC2)CC1 [Example 579, 2-(((3R,4S)-1-((R)-2,3-dihydroxypropanoyl)-3-fluoropiperidin-4-yl)oxy)-5-(4-((3-methoxy-4-(4-(oxetan-3-yl)piperazin-1-yl)phenyl)amino)-1,3,5-triazin-2-yl)benzonitrile]
